From paper PMC12037730 (Nature Communications, 2025)

Tests used:
[1] = biological target: T1, PRPS1 (Homo sapiens, UniProt P60891); test: steady-state kinetics, coupled assay at […] nm; type: biochemical
T1 construct: full length
T1 sequence (P60891 2-318): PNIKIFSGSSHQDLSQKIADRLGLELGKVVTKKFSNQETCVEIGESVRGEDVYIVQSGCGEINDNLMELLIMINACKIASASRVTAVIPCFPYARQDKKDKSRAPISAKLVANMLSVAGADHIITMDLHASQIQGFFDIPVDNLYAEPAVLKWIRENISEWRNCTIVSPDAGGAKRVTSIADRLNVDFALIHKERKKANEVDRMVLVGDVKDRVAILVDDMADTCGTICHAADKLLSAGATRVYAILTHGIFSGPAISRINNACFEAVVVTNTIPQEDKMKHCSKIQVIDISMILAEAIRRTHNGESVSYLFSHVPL

[2] = biological target: T2, PRPS2(-3AA/Q156K) (Homo sapiens, UniProt P11908, Q153K); test: HPLC feedback inhibition assay (AMP production); type: biochemical
T2 construct: full length chimeric variant, 3AA (V103, G104, E105) deleted
T2 sequence (P11908 2-318 Q153K): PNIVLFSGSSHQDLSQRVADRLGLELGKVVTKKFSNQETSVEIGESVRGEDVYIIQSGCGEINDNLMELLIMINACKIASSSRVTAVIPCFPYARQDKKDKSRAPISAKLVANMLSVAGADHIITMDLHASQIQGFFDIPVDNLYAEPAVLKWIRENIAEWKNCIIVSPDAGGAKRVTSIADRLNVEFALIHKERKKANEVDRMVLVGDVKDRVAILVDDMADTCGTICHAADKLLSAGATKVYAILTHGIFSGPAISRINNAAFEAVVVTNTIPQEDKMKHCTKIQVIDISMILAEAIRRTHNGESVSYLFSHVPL

[3] = biological target: T1, PRPS1; test: ITC; co-crystal structure with R5P, ApCpp, Cd2+; enzyme inhibition (IC50 […]); type: binding
[4] = biological target: the molecule itself; test: crystal structure; co-crystallisation of 500 μM purified PRPS with ApCpp or GDP (1:5), R5P, crystals soaked in 1 mM CdCl2; 277 K

With `Nc1ncnc2c1ncn2[C@@H]1O[C@H](COP(=O)(O)OP(=O)(O)OP(=O)(O)O)[C@@H](O)[C@H]1O` [ATP] the “steady-state kinetics, coupled assay at 340 nm” value [1] was “The catalytic efficiencies of PRPS2 and PRPS1 on either ATP or R5P were characterized”.

In the case of `Nc1nc2c(ncn2[C@@H]2O[C@H](CO[P@](=O)(O)OP(=O)(O)O)[C@@H](O)[C@H]2O)c(=O)[nH]1` [GDP], the “HPLC feedback inhibition assay (AMP production)” value [2] is reported as “chimeric variants of PRPS1( + 3AA/K153Q) and PRPS2(-3AA/Q156K), which exhibited switched GDP feedback inhibition responses” and the Kd [3] is reported as 10 µM.

B1: recombinant PRPS2 (enzyme, human, UniProt P11908-2 1-321, looked up)
chain: MPNIVLFSGSSHQDLSQRVADRLGLELGKVVTKKFSNQETSVEIGESVRGEDVYIIQSGCGEINDNLMELLIMINACKIASSSRVTAVIPCFPYARQDKKDKVGESRAPISAKLVANMLSVAGADHIITMDLHASQIQGFFDIPVDNLYAEPAVLQWIRENIAEWKNCIIVSPDAGGAKRVTSIADRLNVEFALIHKERKKANEVDRMVLVGDVKDRVAILVDDMADTCGTICHAADKLLSAGATKVYAILTHGIFSGPAISRINNAAFEAVVVTNTIPQEDKMKHCTKIQVIDISMILAEAIRRTHNGESVSYLFSHVPL
notes: PRPS2, human, full-length gene synthesised and subcloned into pSumo; the form with V103, G104, E105 (3AA) in Loop2 and Q156, i.e. the 321-residue isoform; Crystallised with R5P, ApCpp and Cd2+; source: E. coli BL21(DE3), purified (Ni-NTA, ion exchange, Superdex-200); not shown: His-Sumo, N-terminal, cleaved
B1: binds [4].

B2: PRPS1( + 3AA), PRPS1 chimeric variant (enzyme, human, UniProt P60891 1-318, looked up)
chain: MPNIKIFSGSSHQDLSQKIADRLGLELGKVVTKKFSNQETCVEIGESVRGEDVYIVQSGCGEINDNLMELLIMINACKIASASRVTAVIPCFPYARQDKKDKVGESRAPISAKLVANMLSVAGADHIITMDLHASQIQGFFDIPVDNLYAEPAVLKWIRENISEWRNCTIVSPDAGGAKRVTSIADRLNVDFALIHKERKKANEVDRMVLVGDVKDRVAILVDDMADTCGTICHAADKLLSAGATRVYAILTHGIFSGPAISRINNACFEAVVVTNTIPQEDKMKHCSKIQVIDISMILAEAIRRTHNGESVSYLFSHVPL
notes: PRPS1, human, full length, with the three residues V, G, E of PRPS2 (V103, G104, E105) inserted into the corresponding position of Loop2; the C-terminal residue is then L321; Crystallised with R5P, ApCpp and Cd2+; also called PRPS1 chimera; source: E. coli BL21(DE3), purified (Ni-NTA, ion exchange, Superdex-200); not shown: His-Sumo, N-terminal, cleaved
B2: binds [4].
